Patent US10835500B2, “Medicament for accelerated wound healing” (Symrise AG, priority 2014, dated 2020)

Molecular target: T1, recombinantly expressed OR2AT4 (Homo sapiens, UniProt A6NND4)
T1 construct: expressed in transfected cells; host or cells: Hana3A cells, transient transfection with pcDNA3-OR2AT4 by the calcium phosphate method
T1 sequence (A6NND4 1-320): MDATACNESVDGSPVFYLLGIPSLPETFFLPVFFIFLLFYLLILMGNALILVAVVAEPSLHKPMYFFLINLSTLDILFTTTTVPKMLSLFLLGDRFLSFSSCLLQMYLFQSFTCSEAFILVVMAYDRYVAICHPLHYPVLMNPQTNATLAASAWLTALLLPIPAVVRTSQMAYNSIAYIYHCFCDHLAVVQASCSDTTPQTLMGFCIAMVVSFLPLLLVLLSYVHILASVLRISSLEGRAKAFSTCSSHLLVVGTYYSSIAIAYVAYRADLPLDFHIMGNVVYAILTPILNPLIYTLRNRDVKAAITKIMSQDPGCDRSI
Test: Calcium imaging of transiently OR2AT4-transfected Hana3A cells
Type: cell-based
Settings: for response rate of the Hana3A cells relative to the Ringer control: 1 mM odorant, 20 s stimulation, OR2AT4-transfected Hana3A cells; for agonist or antagonist to heterologously expressed OR2AT4: summary of calcium imaging and luciferase results
Method: Hana3A cells expressing stable endogenous olfactory transduction factors, which specifically target the incorporation of ORs into the cell membrane and thus improve activation capacity, were used as a heterologous expression system. Moreover, the 20 first N-terminal amino acids of rhodopsins (Rho-tag) were added before the N-terminus of the coding sequence of the OR, also in order to support heterologous expression.
A method established at the Department of Cell Physiology of Ruhr University Bochum for deorphanization studies is calcium imaging, in which activation of an OR by an odorant is visualized by a change in the intracellular calcium concentration of transfected cells using a fluorescent dye [cf. Wetzel et al. in: J. Neurosci. 19, pp. 7426-7433 (1999); Spehr et al. in: Science 299, pp. 2054-2058 (2003); Neuhaus et al. in: J. Biol. Chem. 284, pp. 16218-16225 (2009)]. In this method, the Hana3A cells are briefly (20 s) stimulated with an odorant and selected for odorant screenings of high concentrations (up to 1 mM) in order to confirm activation of ORs weakly expressed in Hana3A cells.
The activation of OR2AT4 by Sandalore® was first investigated by the calcium imaging method.
Odorants can not only activate a receptor, but can also act as antagonists to an OR.
Determination of receptive field of recombinantly expressed OR2AT4. […] As a control, untransfected Hana3A cells were simulated with Sandalore®. 100 μM of ATP was used at the end of each measurement as a positive control stimulus. […] The mean response rate including standard error of the cells is shown relative to the Ringer control. […] Isobornyl.: isobornyl cyclohexanol; S. öl: sandalwood oil. Kruskal-Wallis test with multiple comparison. *: p<0.05. […] Significance was determined between Hana3A cells transfected with OR2AT4-pcDNA3 and pcDNA3 without an insert. The dots show mean normalized luciferase-activity including standard error. Mann-Whitney U test; n=3 experiments. *: p<0.05; **: p<0.01; ***: p<0.001.
Antagonists of recombinantly expressed OR2AT4. […] 100 μM of ATP was used at the end of each measurement as a positive control stimulus. […] The mean response rate including standard error of the cells is shown relative to the Ringer control. Number of measurements: Ringer (23), Sandalore® (22), Sandalore®+dimetol (11), dimetol (11), Phenirat (14), Sandalore®+Phenirat (22), Oxyphenylon (12), and Sandalore®+Oxyphenylon (20). S: Sandalore®. Kruskal-Wallis test with multiple comparison. *: p<0.05.

agonist or antagonist to heterologously expressed OR2AT4	agonist or antagonist to heterologously expressed OR2AT4 (listed as Brahmanol)	effect on Sandalore-induced calcium signals in coapplication (coapplication with Sandalore 1:1, 1 mM respectively)	effect of the odorant alone on the Hana3A cells (odorant alone, 1 mM)	SMILES	response rate of the Hana3A cells relative to the Ringer control	agonist or antagonist to heterologously expressed OR2AT4 (listed as Sandalore)
agonists	only agonists			CC1=CCC(CCC(C)CO)C1(C)C (stereo not drawn) [Brahmanol®]	increased response rate in calcium imaging experiments, although the increase was not significant	
antagonists		significantly reduced	no effect	CC(=O)CCc1ccc(O)cc1 [Oxyphenylon]		

SMILES	agonist or antagonist to heterologously expressed OR2AT4	agonist or antagonist to heterologously expressed OR2AT4 (listed as Brahmanol)	effect on Sandalore-induced calcium signals in coapplication (coapplication with Sandalore 1:1, 1 mM respectively)	effect of the odorant alone on the Hana3A cells (odorant alone, 1 mM)	response rate of the Hana3A cells relative to the Ringer control	agonist or antagonist to heterologously expressed OR2AT4 (listed as Sandalore)
CC1=CCC(CCC(C)C(C)O)C1(C)C (stereo not drawn) [Sandalore®]	agonists				significantly increased response rate	only agonists
